A short description of one data set: Mouse brain exposure. It counts as in vivo. As to conditions: for AUC / Kp: Table 3; for AUC: mouse brain; for Kp: mouse, read-out: Mouse Brain exposure compared with blood AUC (%). As for the experimental part: This was determined by harvesting brains at selected time points, weighing and extracting total tissue homogenate for LC/MS/MS analysis. The amount of test compound associated with the brain was calculated by subtracting that amount attributable to blood vessels (7%, times the blood exposure levels).

Data set [1] is described as follows: Microsomal stability, human. As to conditions: for Microsomal stability (CL) human: Table 2; for CLint scaled: Example 12 chart. In kind it is in vitro ADME. The procedure:
Liver microsomes and hepatocytes represent an in vitro surrogate for assessing the phase I/II metabolic stability of new discovery leads. Following the incubation of the compounds with microsomes or hepatocytes of different species (e.g., human, rat, dog, monkey, mouse), the samples were transferred to 96 well plates for quantitation using LC/MS/MS. The % of compound remaining was measured and used to calculate clearance and % hepatic blood flow.

The target in the next data set is T1, CYP1A2 (Homo sapiens, UniProt P05177).
T1 sequence (P05177 1-516): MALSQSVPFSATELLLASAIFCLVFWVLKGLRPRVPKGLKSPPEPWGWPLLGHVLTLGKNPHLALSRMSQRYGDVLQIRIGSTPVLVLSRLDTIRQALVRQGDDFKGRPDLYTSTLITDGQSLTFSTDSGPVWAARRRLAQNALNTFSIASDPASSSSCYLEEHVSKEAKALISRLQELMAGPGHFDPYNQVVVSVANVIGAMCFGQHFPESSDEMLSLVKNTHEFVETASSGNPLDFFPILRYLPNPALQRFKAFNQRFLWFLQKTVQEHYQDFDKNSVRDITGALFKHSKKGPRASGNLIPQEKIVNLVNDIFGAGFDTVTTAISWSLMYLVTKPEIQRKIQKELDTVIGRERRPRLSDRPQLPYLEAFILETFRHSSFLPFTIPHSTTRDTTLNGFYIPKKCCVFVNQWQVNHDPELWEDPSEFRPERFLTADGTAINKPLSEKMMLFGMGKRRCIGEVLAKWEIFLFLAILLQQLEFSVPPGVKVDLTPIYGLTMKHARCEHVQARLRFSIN
The data set can be described thus: Cytochrome P450 inhibition, CYP1A2. The text has this:
This cytochrome P450 high throughput IC50 inhibition assay is utilized for screening potential inhibitors of the 5 major human CYP isozyme catalytic activities (CYP3A4, 2D6, 2C9, 2C19, and 1A2).

For data set [2], the system named is Trypanosoma brucei rhodesiense strain STIB 900. The data set can be described thus: Drug sensitivity assay against T. b. rhodesiense (Alamar blue). In kind it is cell-based. An excerpt:
Trypanosoma brucei rhodesiense strain STIB 900, a clone of a population isolated in 1982 from a patient in Tanzania which is known to be susceptible to all currently used drugs was used in these assays. The bloodstream form trypomastigotes of this strain were maintained in supplemented Modified Eagle's Medium according to standard protocols (Hirumi H, Hirumi K, 1989. “Continuous cultivation of Trypanosoma brucei blood stream forms in a medium containing a low concentration of serum protein without feeder cell layers”. J Parasitol 75: 985-9).
Drug sensitivity assays were performed in sterile 96-well microtiter plates, with or without serial drug dilutions. The compounds were tested at 7 concentrations (drug concentration ranging from 90 μg/ml to 0.123 μg/ml in 3-fold dilutions). The highest concentration for the test compounds was 90 μg/ml. Each drug is tested in duplicate. After 72 hours of incubation the plates were inspected microscopically to assure growth of the controls to determine the minimum inhibitory concentration (MIC), i.e., the lowest drug concentration at which no trypanosomes with normal morphology and motility can be seen compared to control wells. Cell viability is measured by Alamar blue staining and IC50 values were calculated.
The bloodstream form trypomastigotes of the three strains are maintained according to standard protocols established at STI.
Drug sensitivity assays are performed in sterile 96-well microtiter plates, with or without serial drug dilutions. The highest concentration for the test compounds is 90 μg/ml. Each drug is tested in duplicate. After 72 hours of incubation the plates are inspected microscopically to assure growth of the controls to determine the minimum inhibitory concentration (MIC), i.e., the lowest drug concentration at which no trypanosomes with normal morphology and motility can be seen compared to control wells. Cell viability is measured by Alamar blue staining and IC50 values are calculated.
The preliminary screen used T. b. rhodesiense. The compounds were tested at 7 concentrations (drug concentration ranging from 90 μg/ml to 0.123 μg/ml in 3-fold dilutions).
(In general: The colour change of resazurin is a common sign of viable cells or microbes.)

The test system of another data set is Schistosomes adult. Nature of the data set: Screening against Schistosomes, adult. In kind it is cell-based. The conditions noted are these: Screening Data.
The nature of a further data set: Mouse PK study. It counts as in vivo. As to conditions: for t/2 in mouse: Table 3. The procedure: The rodent PK study designs provide reliable estimation of PK parameters using fewer animals. Often two routes, PO and IV, were included in the rodent PK study protocols with three subjects in each dosing group (often PO at 10 mg/kg and IV at 3 mg/kg).
The next data set has as its system T. b. brucei - STIB795. Nature of the data set: In vivo efficacy, acute T. b. brucei STIB795 infection model in mice. Details: species or system mouse (NMRI). As to conditions: for average (survival days) / cured/infected: 4 × 50 mg/kg i.p., NMRI mice; for average (survival days): control 6; for activity in the model (lengthening the survival days) / mice cured: STIB795 model, footnote of Table 4; for protection from lethal effects of infection: controls died on average by Day 6. As for the experimental part: Compounds are tested for efficacy in the acute model for T. b. brucei infection (Bitonti A J, Byers T L, Bush T L, Casara P J, Bacchi C J, Clarkson A B, Jr., McCann P P, Sjoerdsma A, 1990. Cure of Trypanosoma brucei brucei and Trypanosoma brucei rhodesiense infections in mice with an irreversible inhibitor of S-adenosylmethionine decarboxylase. Antimicrob Agents Chemother 34: 1485-1490). Briefly, mice are infected with 1×10^4 strain STIB 795 trypanosomes on Day 0, then treated once/day (50 mg/kg i.p) with test compound for 4 days starting on Day 3. Animals are assessed by microscopic examination of blood smears twice/week through Day 60. Untreated animals generally die by Days 7-9.

Where [3] appears, read: Screening Data, read-out: IC50 T. b. rhod.
Setting [4] is: Table 1, 72 hours incubation, Alamar blue, read-out: IC50 against T. b. rhodesiense (ug/mL) by STI.
Where [5] appears, read: Table 2, read-out: IC50 against T. b. rhodesiense (ug/mL) by STI.
The mark [6] stands for this setting: Table 3, read-out: IC50 against T. brucei rhodesiense.
Where [7] appears, read: read-out: CYP IC50 1A2, Example 12 chart.

Like-named read-outs stand apart in the source and are kept apart here.

The AUC is the area under the concentration-time curve, a measure of exposure. High values mean more exposure, low ones less exposure. For orientation: CLint scaled means the rate of metabolic loss divided by the concentration. As for `CN(C/C=C\CN)C[C@H]1O[C@@H](n2cnc3c(N)ncnc32)[C@H](F)[C@@H]1O` (stereo in doubt) [Compound 1], the AUC in “Mouse brain exposure” was found to be 26 ng·h/mL. Also, the Kp in the data set “Mouse brain exposure” (brain relative to blood) came out at 0.0016. The “Microsomal stability (CL) human” value in data set [1] is recorded as under 4.2 mL/min/kg. The same compound displayed an intrinsic metabolic clearance (CLint scaled) in data set [1] (liver microsomes) of under 4.5 mL/min/kg. Further, the IC50 was over 5 µM against CYP1A2 (human, probe fluorometric substrates (not named)); 1.39 µM in data set [2] (setting [3]); 0.489 µg/mL in data set [2] (setting [4]); 0.489 µg/mL in data set [2] (setting [5]); 0.489 µg/mL in data set [2] (setting [6]); over 10 µM in the data set on Schistosomes adult. For the same compound, the t/2 in mouse in “Mouse PK study” is 1.93 h.

The compound `Cc1nc2c(N)ncnc2n1[C@@H]1O[C@H](CN(C)C/C=C\CN)[C@@H](O)[C@H]1O` (stereo in doubt) [Compound 4] yielded an AUC in the data set “Mouse brain exposure” of 1180 ng·h/mL. For the same compound, the Kp in “Mouse brain exposure” (brain relative to blood) was 0.066. Also, in the data set “Mouse brain exposure” (text b82), the “percentage of brain blood barrier penetration (compared with MDL-73811)” value is given as “higher percentage of brain blood barrier penetration”. Also, in the data set “Mouse brain exposure” (vs MDL73811), the “mouse brain exposure, fold greater than for MDL 73811” value is about 4 fold. The “Microsomal stability (CL) human” value in data set [1] is under 4.2 mL/min/kg. The CLint scaled in data set [1] (liver microsomes) was under 4.5 mL/min/kg. Moreover, in the data set with T. b. brucei - STIB795, the “survival of treated animals” value was “all survived through Day 30”. In the data set on T. b. brucei - STIB795, the “average (survival days)” value was over 30 days. In addition, the cured/infected in the data set with T. b. brucei - STIB795 (20 Days) is listed as 20 Days 0/4; with T. b. brucei - STIB795 (>30 Days), 1/4. Further, in the data set on T. b. brucei - STIB795 (Day 20), the “parasites on Day 20” value is “appeared free of parasites”. In addition, in the data set with T. b. brucei - STIB795 (Day 30), the “parasites on Day 30” value is reported as “parasites were again evident”. The “activity in the model (lengthening the survival days)” value with T. b. brucei - STIB795 is reported as “active in the model in terms of lengthening the survival days”. Moreover, the mice cured entry in the data set on T. b. brucei - STIB795 (listed as Compound No. 4) is given as “¼”. Also, the “protection from lethal effects of infection” value in the data set with T. b. brucei - STIB795 was “protected mice from lethal effects of infection”. Moreover, the IC50 on CYP1A2 is over 5 µM; at CYP1A2 (setting [7]) it was over 5 µM; in data set [2] (setting [3]), 0.001 µM; in data set [2] (setting [4]), 0.0004 µg/mL; in data set [2] (setting [5]) it was 0.0004 µg/mL; in data set [2] (setting [6]), 0.0004 µg/mL. Also, the figures for the IC50 (in data set [2] (read-out: IC50 against T. b. rhodesiense); in the data set with Schistosomes adult) were 0.0004 µg/mL and over 10 µM, respectively. In “Mouse PK study”, this compound had a t/2 in mouse of 7.43 h. For the same compound, in “Mouse PK study” (vs MDL-73811), the “t/2, fold greater than that for MDL-73811” value was about 3 fold.

With `CN(C/C=C\CN)C[C@H]1O[C@@H](n2cnc3c(N)ncnc32)[C@@H](F)[C@@H]1O` [Compound 2], in data set [1], the “Microsomal stability (CL) human” value is recorded as under 4.2 mL/min/kg. The CLint scaled in data set [1] (liver microsomes) is under 4.5 mL/min/kg. Also, the IC50 against CYP1A2 was over 5 µM; at CYP1A2 (setting [7]), over 5 µM; in data set [2] (setting [3]) it was 2.59 µM; in data set [2] (setting [4]), 0.908 µg/mL; in data set [2] (setting [5]) it was 0.908 µg/mL; in the data set with Schistosomes adult, over 10 µM.

Compound `CN(C/C=C\CN)C[C@H]1O[C@@H](n2cnc3c(N)nc(Cl)nc32)[C@H](O)[C@@H]1O` [Compound 3] came in with an AUC in “Mouse brain exposure” of 170 ng·h/mL. Also, the Kp in the data set “Mouse brain exposure” (brain relative to blood) turned out to be 0.0077. The “Microsomal stability (CL) human” value in data set [1] is on record as under 4.2 mL/min/kg. Moreover, the CLint scaled in data set [1] (liver microsomes) is under 4.5 mL/min/kg. Also, the IC50 on CYP1A2 is over 5 µM; on CYP1A2 (setting [7]), over 5 µM; in data set [2] (setting [3]), 1.76 µM; in data set [2] (setting [4]), 0.676 µg/mL; in data set [2] (setting [5]), 0.676 µg/mL; with Schistosomes adult it was over 10 µM. Further, the t/2 in mouse in “Mouse PK study” worked out at 1.66 h.

The logD is lipophilicity at a set pH, counting ionised and neutral species. A higher logD goes with a more lipophilic compound. On to `CN(C/C=C\CN)CC1OC(n2cnc3c(N)ncnc32)C(O)C1O` (stereo not drawn) [MDL-73811, reference compound], for which, in “Mouse brain exposure” (in vivo), the exposure (AUC) came to 280 ng·h/mL. Besides, the Kp in the data set “Mouse brain exposure” (in vivo) turned out to be 0.0134. Moreover, the “Microsomal stability (CL) human” value in data set [1] was under 4.2 mL/min/kg. Besides, the CLint scaled in data set [1] (microsomes) was under 4.5 mL/min/kg. Also, the “survival of treated animals” value with T. b. brucei - STIB795 is “all survived through Day 30”. In addition, the “average (survival days)” value in the data set on T. b. brucei - STIB795 is reported as over 30 days. The results for the cured/infected in the data set on T. b. brucei - STIB795 (26 Days) and in the data set on T. b. brucei - STIB795 (>30 Days) were 26 Days 2/4 and 1/4, respectively. The “activity in the model (lengthening the survival days)” value with T. b. brucei - STIB795 is given as “active in the model in terms of lengthening the survival days”. The mice cured result with T. b. brucei - STIB795 was “¼”. Moreover, the “protection from lethal effects of infection” value with T. b. brucei - STIB795 is “protected mice from lethal effects of infection”. The IC50 is over 5 µM against CYP1A2; over 5 µM at CYP1A2 (setting [7]); 0.011 µM in data set [2] (setting [3]); 0.004 µg/mL in data set [2] (setting [4]); 0.004 µg/mL in data set [2] (setting [5]); 0.004 µg/mL in data set [2] (setting [6]). In the data set with Schistosomes adult, the IC50 was over 10 µM. The t/2 in mouse in the data set “Mouse PK study” was 2.48 h. Moreover, the logD in the data set “physchem” is -1.8.
